{"source": "patent US20260028326A1", "about": "“COMPOUND BASED ON ISOINDOLINE-SUBSTITUTED GLUTARIMIDE BACKBONE AND USE THEREOF” (GLUETACS THERAPEUTICS (SHANGHAI) CO., LTD., priority 2022, published 2026)", "key": {"GSPT1 protein": {"molecular_target": "GSPT1 protein (Homo sapiens (Human), UniProt P15170+Q96SW2)", "sequence (P15170 whole entry)": "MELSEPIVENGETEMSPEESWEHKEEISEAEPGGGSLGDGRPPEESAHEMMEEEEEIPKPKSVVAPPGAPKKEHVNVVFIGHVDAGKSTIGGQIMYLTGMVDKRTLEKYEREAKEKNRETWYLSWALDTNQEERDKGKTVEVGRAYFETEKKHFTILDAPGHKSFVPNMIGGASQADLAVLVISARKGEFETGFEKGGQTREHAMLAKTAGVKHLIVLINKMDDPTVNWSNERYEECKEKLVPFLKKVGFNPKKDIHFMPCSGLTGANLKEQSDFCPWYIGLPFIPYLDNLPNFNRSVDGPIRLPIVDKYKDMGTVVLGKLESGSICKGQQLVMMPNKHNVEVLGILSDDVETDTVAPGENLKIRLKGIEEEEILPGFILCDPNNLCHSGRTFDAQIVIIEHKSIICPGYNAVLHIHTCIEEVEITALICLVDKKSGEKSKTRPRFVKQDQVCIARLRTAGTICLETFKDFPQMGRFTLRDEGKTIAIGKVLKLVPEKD", "sequence (Q96SW2 whole entry)": "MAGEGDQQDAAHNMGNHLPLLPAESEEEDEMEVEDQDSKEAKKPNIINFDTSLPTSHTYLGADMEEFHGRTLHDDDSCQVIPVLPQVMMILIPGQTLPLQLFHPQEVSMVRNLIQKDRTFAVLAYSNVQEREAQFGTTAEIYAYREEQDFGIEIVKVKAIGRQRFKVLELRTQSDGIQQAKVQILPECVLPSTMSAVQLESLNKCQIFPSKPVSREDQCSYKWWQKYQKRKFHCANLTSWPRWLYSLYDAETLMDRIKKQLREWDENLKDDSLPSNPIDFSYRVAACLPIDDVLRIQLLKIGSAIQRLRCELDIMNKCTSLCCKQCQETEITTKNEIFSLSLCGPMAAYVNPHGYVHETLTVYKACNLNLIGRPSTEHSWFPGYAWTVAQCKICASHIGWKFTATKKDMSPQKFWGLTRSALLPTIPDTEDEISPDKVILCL", "sequence (Q16531 whole entry partner)": "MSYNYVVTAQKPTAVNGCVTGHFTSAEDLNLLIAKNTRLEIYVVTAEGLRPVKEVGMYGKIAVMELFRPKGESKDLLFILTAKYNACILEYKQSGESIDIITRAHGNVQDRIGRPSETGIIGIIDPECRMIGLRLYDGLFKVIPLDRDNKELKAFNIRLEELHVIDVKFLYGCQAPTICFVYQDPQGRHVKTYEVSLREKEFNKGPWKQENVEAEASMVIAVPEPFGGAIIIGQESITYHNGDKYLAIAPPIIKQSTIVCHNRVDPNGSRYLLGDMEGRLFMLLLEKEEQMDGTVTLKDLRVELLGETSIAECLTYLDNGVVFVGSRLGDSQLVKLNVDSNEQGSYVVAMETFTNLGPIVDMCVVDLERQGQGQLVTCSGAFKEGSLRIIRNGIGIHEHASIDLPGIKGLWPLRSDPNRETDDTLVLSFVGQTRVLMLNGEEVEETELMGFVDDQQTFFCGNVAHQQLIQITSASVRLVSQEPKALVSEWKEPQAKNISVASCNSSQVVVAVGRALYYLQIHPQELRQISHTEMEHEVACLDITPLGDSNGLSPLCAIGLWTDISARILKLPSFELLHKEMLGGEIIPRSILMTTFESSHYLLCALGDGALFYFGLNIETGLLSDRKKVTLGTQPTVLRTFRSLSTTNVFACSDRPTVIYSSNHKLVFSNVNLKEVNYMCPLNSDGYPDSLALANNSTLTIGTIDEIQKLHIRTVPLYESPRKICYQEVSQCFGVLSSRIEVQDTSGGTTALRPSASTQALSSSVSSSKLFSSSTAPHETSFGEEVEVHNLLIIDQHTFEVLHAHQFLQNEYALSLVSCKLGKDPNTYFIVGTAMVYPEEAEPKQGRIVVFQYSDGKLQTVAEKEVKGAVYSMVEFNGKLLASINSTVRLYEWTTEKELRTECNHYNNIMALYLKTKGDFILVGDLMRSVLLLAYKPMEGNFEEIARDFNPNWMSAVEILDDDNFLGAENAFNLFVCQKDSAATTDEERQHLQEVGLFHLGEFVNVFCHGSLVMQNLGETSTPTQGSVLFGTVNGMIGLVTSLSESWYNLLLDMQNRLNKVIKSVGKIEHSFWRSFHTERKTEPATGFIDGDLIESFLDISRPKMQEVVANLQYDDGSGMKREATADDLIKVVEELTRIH", "test": "Western-blot assay of substrate protein degradation in hPBMC, GSPT1", "assay_type": "cell-based", "details": "hPBMC cells, compound 500 nM, 24 hours, Western blot", "description": "(§1) After treating the cells with the compounds for 24 hours, the cells were collected and lysed using RIPA protein lysate containing phosphatase inhibitors. The lysate was then placed on ice for 30-60 minutes and centrifuged. The supernatant was aspirated as the extracted total cell protein. The protein concentration of the supernatant was determined using the conventional BCA (Bicinchoninic Acid) assay. The supernatant was then mixed with 4×SDS sample loading buffer, denatured at 95° C. for 5 minutes, and then subjected to SDS-PAGE electrophoresis on a polyacrylamide gel, followed by transfer to a nitrocellulose membrane (NC membrane). The membrane was blocked with blocking buffer at room temperature for 1-2 hours, and then antibody incubation and detection were carried out according to the antibody instructions provided by Cell Signaling Technology.\n(§2) Half-Maximal Degradation Concentration value (the drug concentration required for degrading proteins by 50%, abbreviated as DC50) reads method: comparing the gray values of the Western blotting bands for the drug treatment with the gray values of the Western blotting band for the DMSO control, and reading the drug concentration range corresponding to the gray value of the Western blotting bands for the drug treatment which is equal to half of the gray value of the Western blotting band for the DMSO control.\n(§3) DC50 value could also be calculated as follows: using software ImageJ to quantify the gray values of the Western blotting bands for the drug treatment, fitting the relationship curve between drug concentrations and gray values, and from the fitted curve, calculating the drug concentration corresponding to half of the gray value of the Western blotting band for the DMSO control."}, "[1]": {"molecular_target": "human Cereblon WT GST-tagged protein (Homo sapiens (Human), UniProt Q96SW2)", "sequence (Q96SW2 whole entry)": "as the sequence (Q96SW2 whole entry) above", "test": "CRBN-binding affinity, HTRF (CEREBLON BINDING kit)", "summary_of_the_method": "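GST-tagged human WT Cereblon incubated with compound, then Thalidomide-Re tracer and anti-GST Eu antibody added. Displacement read by HTRF, reported as CRBN binding inhibition rate against blank control wells without protein.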"}, "IKZF3 protein": {"molecular_target": "IKZF3 protein (Homo sapiens (Human), UniProt Q96SW2+Q9UKT9)", "sequence (Q9UKT9 whole entry)": "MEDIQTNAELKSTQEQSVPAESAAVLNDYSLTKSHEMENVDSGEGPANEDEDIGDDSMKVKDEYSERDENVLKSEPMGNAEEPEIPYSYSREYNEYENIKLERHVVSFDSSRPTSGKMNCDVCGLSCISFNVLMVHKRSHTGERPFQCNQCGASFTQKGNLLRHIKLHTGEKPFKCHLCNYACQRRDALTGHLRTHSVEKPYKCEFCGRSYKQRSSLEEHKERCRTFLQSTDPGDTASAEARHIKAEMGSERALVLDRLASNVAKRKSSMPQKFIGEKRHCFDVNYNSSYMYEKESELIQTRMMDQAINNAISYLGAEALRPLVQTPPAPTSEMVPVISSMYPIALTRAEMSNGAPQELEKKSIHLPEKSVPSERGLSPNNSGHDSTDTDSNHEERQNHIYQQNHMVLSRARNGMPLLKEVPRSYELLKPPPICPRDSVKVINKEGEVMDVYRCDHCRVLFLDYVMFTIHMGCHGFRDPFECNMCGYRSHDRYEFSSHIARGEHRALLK", "sequence (Q96SW2 whole entry)": "as the sequence (Q96SW2 whole entry) above", "sequence (Q16531 whole entry partner)": "as the sequence (Q16531 whole entry partner) above", "test": "Western-blot assay of substrate protein degradation in hPBMC, IKZF3", "assay_type": "cell-based", "details": "hPBMC cells, compound 500 nM, 24 hours, Western blot", "description": "as §1, §2, §3"}, "IKZF1 protein": {"molecular_target": "IKZF1 protein (Homo sapiens (Human), UniProt Q13422+Q96SW2)", "sequence (Q13422 whole entry)": "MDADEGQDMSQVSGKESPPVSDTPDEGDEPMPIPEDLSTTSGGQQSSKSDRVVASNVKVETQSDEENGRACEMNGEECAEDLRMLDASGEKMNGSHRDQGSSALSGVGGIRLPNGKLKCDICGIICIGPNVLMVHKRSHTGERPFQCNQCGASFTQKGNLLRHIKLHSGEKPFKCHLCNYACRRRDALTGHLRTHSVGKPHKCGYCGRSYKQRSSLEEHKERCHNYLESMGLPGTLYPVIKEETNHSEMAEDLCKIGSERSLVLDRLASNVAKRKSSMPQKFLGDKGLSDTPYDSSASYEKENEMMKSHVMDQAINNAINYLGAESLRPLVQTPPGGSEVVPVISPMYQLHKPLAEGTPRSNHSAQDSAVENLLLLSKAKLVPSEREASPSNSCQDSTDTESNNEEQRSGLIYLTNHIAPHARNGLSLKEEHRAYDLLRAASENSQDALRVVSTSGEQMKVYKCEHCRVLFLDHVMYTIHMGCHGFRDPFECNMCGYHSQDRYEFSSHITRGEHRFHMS", "sequence (Q96SW2 whole entry)": "as the sequence (Q96SW2 whole entry) above", "sequence (Q16531 whole entry partner)": "as the sequence (Q16531 whole entry partner) above", "test": "Western-blot assay of substrate protein degradation in hPBMC, IKZF1", "assay_type": "cell-based", "details": "hPBMC cells, compound 500 nM, 24 hours, Western blot", "description": "as §1, §2, §3"}}}
{"smiles": "CC1(C)CCC(CN2CC3CC(C2)N3Cc2ccc3c(c2F)CN(C2CCC(=O)NC2=O)C3=O)=C(c2ccc(Cl)cc2)C1", "note": "(centres unmarked) [GT-03493, 3-(5-((3-((4′-chloro-5,5-dimethyl-3,4,5,6-tetrahydro-[1,1′-biphenyl]-2-yl)methyl)-3,6-diazabicyclo[3.1.1]heptan-6-yl)methyl)-4-fluoro-1-oxoisoindolin-2-yl)piperidine-2,6-dione]", "values": [{"measurement": "residual substrate protein level, GSPT1", "setting": "GSPT1 protein", "result": "A (A represents a residual substrate protein level of <50%)"}, {"measurement": "IC50", "setting": "[1]", "result": 750, "unit": "nM"}, {"measurement": "residual substrate protein level, IKZF3", "setting": "IKZF3 protein", "result": "A (A represents a residual substrate protein level of <50%)"}, {"measurement": "residual substrate protein level, IKZF1", "setting": "IKZF1 protein", "result": "A (A represents a residual substrate protein level of <50%)"}]}
{"smiles": "O=C1CCC(N2Cc3cc(C=C4CN(Cc5ccccc5-c5ccc(Cl)cc5)C4)ccc3C2=O)C(=O)N1", "note": "(centres unmarked) [GT-03881, 3-(5-((1-((4′-chloro-[1,1′-biphenyl]-2-yl)methyl)azetidin-3-ylidene)methyl)-1-oxoisoindolin-2-yl)piperidine-2,6-dione]", "values": [{"measurement": "residual substrate protein level, GSPT1", "setting": "GSPT1 protein", "result": "A (A represents a residual substrate protein level of <50%)"}, {"measurement": "IC50", "setting": "[1]", "result": 480, "unit": "nM"}, {"measurement": "residual substrate protein level, IKZF3", "setting": "IKZF3 protein", "result": "B (B represents a residual substrate protein level of >50%)"}, {"measurement": "residual substrate protein level, IKZF1", "setting": "IKZF1 protein", "result": "B (B represents a residual substrate protein level of >50%)"}]}
{"smiles": "CC1(C)CCC(CN2CC3CCC(C2)N3Cc2ccc3c(c2)C(=O)N(C2CCC(=O)NC2=O)C3=O)=C(c2ccc(Cl)cc2)C1", "note": "(centres unmarked) [GT-04719, 5-((3-((4′-chloro-5,5-dimethyl-3,4,5,6-tetrahydro-[1,1′-biphenyl]-2-yl)methyl)-3,8-diazabicyclo[3.2.1]octan-8-yl)methyl)-2-(2,6-dioxopiperidin-3-yl)isoindoline-1,3-dione]", "values": [{"measurement": "residual substrate protein level, GSPT1", "setting": "GSPT1 protein", "result": "A (A represents a residual substrate protein level of <50%)"}, {"measurement": "residual substrate protein level, IKZF3", "setting": "IKZF3 protein", "result": "B (B represents a residual substrate protein level of >50%)"}, {"measurement": "residual substrate protein level, IKZF1", "setting": "IKZF1 protein", "result": "B (B represents a residual substrate protein level of >50%)"}]}
{"smiles": "CC1(C)CCC(CN2CC3CCC2CN3C(=O)c2ccc3c(c2)C(=O)N(C2CCC(=O)NC2=O)C3=O)=C(c2ccc(Cl)cc2)C1", "note": "(centres unmarked) [GT-05414, 5-(5-((4′-chloro-5,5-dimethyl-3,4,5,6-tetrahydro-[1,1′-biphenyl]-2-yl)methyl)-2,5-diazabicyclo[2.2.2]octane-2-carbonyl)-2-(2,6-dioxopiperidin-3-yl)isoindoline-1,3-dione]", "values": [{"measurement": "residual substrate protein level, GSPT1", "setting": "GSPT1 protein", "result": "B (B represents a residual substrate protein level of >50%)"}, {"measurement": "residual substrate protein level, IKZF3", "setting": "IKZF3 protein", "result": "A (A represents a residual substrate protein level of <50%)"}, {"measurement": "residual substrate protein level, IKZF1", "setting": "IKZF1 protein", "result": "B (B represents a residual substrate protein level of >50%)"}]}
{"smiles": "CC1(C)CCC(CN2CC3CCC(C2)N3c2ccc3c(c2)CN(C2CCC(=O)NC2=O)C3=O)=C(c2ccc(Cl)cc2)C1", "note": "(centres unmarked) [GT-05430, 3-(5-(3-((4′-chloro-5,5-dimethyl-3,4,5,6-tetrahydro-[1,1′-biphenyl]-2-yl)methyl)-3,8-diazabicyclo[3.2.1]octan-8-yl)-1-oxoisoindolin-2-yl)piperidine-2,6-dione]", "values": [{"measurement": "residual substrate protein level, GSPT1", "setting": "GSPT1 protein", "result": "A (A represents a residual substrate protein level of <50%)"}, {"measurement": "residual substrate protein level, IKZF3", "setting": "IKZF3 protein", "result": "B (B represents a residual substrate protein level of >50%)"}, {"measurement": "residual substrate protein level, IKZF1", "setting": "IKZF1 protein", "result": "B (B represents a residual substrate protein level of >50%)"}]}
{"smiles": "O=C1CCC(N2C(=O)c3ccc(CN4CCN(CC5=C(c6ccc(F)cc6)CCCC5)CC4)cc3C2=O)C(=O)N1", "note": "(centres unmarked) [GT-05464, 2-(2,6-dioxopiperidin-3-yl)-5-((4-((4′-fluoro-3,4,5,6-tetrahydro-[1,1′-biphenyl]-2-yl)methyl)piperazin-1-yl)methyl)isoindoline-1,3-dione]", "values": [{"measurement": "residual substrate protein level, GSPT1", "setting": "GSPT1 protein", "result": "B (B represents a residual substrate protein level of >50%)"}, {"measurement": "residual substrate protein level, IKZF3", "setting": "IKZF3 protein", "result": "A (A represents a residual substrate protein level of <50%)"}, {"measurement": "residual substrate protein level, IKZF1", "setting": "IKZF1 protein", "result": "B (B represents a residual substrate protein level of >50%)"}]}
{"smiles": "CC1(C)CCC(CN2CC3CC2CN3Cc2ccc3c(c2)C(=O)N(C2CCC(=O)NC2=O)C3=O)=C(c2ccc(Cl)cc2)C1", "note": "(centres unmarked) [GT-05533, 5-((5-((4′-chloro-5,5-dimethyl-3,4,5,6-tetrahydro-[1,1′-biphenyl]-2-yl)methyl)-2,5-diazabicyclo[2.2.1]heptan-2-yl)methyl)-2-(2,6-dioxopiperidin-3-yl)isoindoline-1,3-dione]", "values": [{"measurement": "residual substrate protein level, GSPT1", "setting": "GSPT1 protein", "result": "A (A represents a residual substrate protein level of <50%)"}, {"measurement": "residual substrate protein level, IKZF3", "setting": "IKZF3 protein", "result": "A (A represents a residual substrate protein level of <50%)"}, {"measurement": "residual substrate protein level, IKZF1", "setting": "IKZF1 protein", "result": "A (A represents a residual substrate protein level of <50%)"}]}
{"smiles": "O=C1CCC(N2C(=O)c3ccc(C(=O)N4CCN(Cc5ccc(-c6ccc(Cl)cc6)cc5)CC4)cc3C2=O)C(=O)N1", "note": "(centres unmarked) [GT-05600, 5-(4-((4′-chloro-[1,1′-biphenyl]-4-yl)methyl)piperazine-1-carbonyl)-2-(2,6-dioxopiperidin-3-yl)isoindoline-1,3-dione]", "values": [{"measurement": "residual substrate protein level, GSPT1", "setting": "GSPT1 protein", "result": "A (A represents a residual substrate protein level of <50%)"}, {"measurement": "residual substrate protein level, IKZF3", "setting": "IKZF3 protein", "result": "B (B represents a residual substrate protein level of >50%)"}, {"measurement": "residual substrate protein level, IKZF1", "setting": "IKZF1 protein", "result": "B (B represents a residual substrate protein level of >50%)"}]}
{"smiles": "O=C1CCC(N2C(=O)c3ccc(CN4CCN(Cc5cccc(-c6ccc(Cl)cc6)c5)CC4)cc3C2=O)C(=O)N1", "note": "(centres unmarked) [GT-05630, 5-((4-((4′-chloro-[1,1′-biphenyl]-3-yl)methyl)piperazin-1-yl)methyl)-2-(2,6-dioxopiperidin-3-yl)isoindoline-1,3-dione]", "values": [{"measurement": "residual substrate protein level, GSPT1", "setting": "GSPT1 protein", "result": "B (B represents a residual substrate protein level of >50%)"}, {"measurement": "residual substrate protein level, IKZF3", "setting": "IKZF3 protein", "result": "A (A represents a residual substrate protein level of <50%)"}, {"measurement": "residual substrate protein level, IKZF1", "setting": "IKZF1 protein", "result": "B (B represents a residual substrate protein level of >50%)"}]}
{"smiles": "CC1(C)CCC(CN2CC3(C2)CN(Cc2ccc4c(c2)C(=O)N(C2CCC(=O)NC2=O)C4=O)C3)=C(c2ccc(Cl)cc2)C1", "note": "(centres unmarked) [GT-05675, 5-((6-((4′-chloro-5,5-dimethyl-3,4,5,6-tetrahydro-[1,1′-biphenyl]-2-yl)methyl)-2,6-diazaspiro[3.3]heptan-2-yl)methyl)-2-(2,6-dioxopiperidin-3-yl)isoindoline-1,3-dione]", "values": [{"measurement": "residual substrate protein level, GSPT1", "setting": "GSPT1 protein", "result": "B (B represents a residual substrate protein level of >50%)"}, {"measurement": "residual substrate protein level, IKZF3", "setting": "IKZF3 protein", "result": "B (B represents a residual substrate protein level of >50%)"}, {"measurement": "residual substrate protein level, IKZF1", "setting": "IKZF1 protein", "result": "B (B represents a residual substrate protein level of >50%)"}]}
{"smiles": "CC1(C)CCC(CN2CCN(Cc3ccc4c(c3)C(=O)N(C3CCC(=O)NC3=O)C4=O)C(C(F)(F)F)C2)=C(c2ccc(Cl)cc2)C1", "note": "(centres unmarked) [GT-06103, 5-((4-((4′-chloro-5,5-dimethyl-3,4,5,6-tetrahydro-[1,1′-biphenyl]-2-yl)methyl)-2-(trifluoromethyl)piperazin-1-yl)methyl)-2-(2,6-dioxopiperidin-3-yl)isoindoline-1,3-dione]", "values": [{"measurement": "residual substrate protein level, GSPT1", "setting": "GSPT1 protein", "result": "A (A represents a residual substrate protein level of <50%)"}, {"measurement": "residual substrate protein level, IKZF3", "setting": "IKZF3 protein", "result": "B (B represents a residual substrate protein level of >50%)"}, {"measurement": "residual substrate protein level, IKZF1", "setting": "IKZF1 protein", "result": "B (B represents a residual substrate protein level of >50%)"}]}
